Results reported in paper PMC5080355, “Interaction of the Nitrogen Regulatory Protein GlnB (PII) with Biotin Carboxyl Carrier Protein (BCCP) Controls Acetyl-CoA Levels in the Cyanobacterium Synechocystis sp. PCC 6803” (Frontiers in Microbiology, 2016).
pEC50, pIC50: −log10 of the molar value.

How the values were obtained:
[1] = target: T1, SyGlnB (PII) in complex with SyBCCP (Synechocystis sp. PCC 6803, UniProt Q55247, S49C); test: biochemical
T1 construct: gene glnB

[2] = target: T2, SyGlnB (PII) in complex with SyBCCP (Synechocystis sp. PCC 6803, UniProt Q55247, S49D); test: biochemical
T2 construct: gene glnB

[3] = target: T3, SyGlnB (PII) in complex with SyBCCP (Synechocystis sp. PCC 6803, UniProt Q55247); test: biochemical; parameters: gene glnB
[4] = target: T3, SyGlnB (PII) in complex with SyBCCP; test: pull-down of GlnB with His-BCCP on Ni-NTA magnetic beads, SDS-PAGE densitometry, 2-OG titration; format: binding; parameters: gene glnB; GlnB C-terminally Strep-tagged (pASK-IBA3glnBSc); bait His-tagged BCCP (pET15accB), biotinylated with E. coli BirA; both expressed in E. coli and purified; GlnB homotrimer; with Biotin carboxyl carrier protein of acetyl-CoA carboxylase; conditions: read-out: apparent IC50

T3 sequence (Q55247 whole entry): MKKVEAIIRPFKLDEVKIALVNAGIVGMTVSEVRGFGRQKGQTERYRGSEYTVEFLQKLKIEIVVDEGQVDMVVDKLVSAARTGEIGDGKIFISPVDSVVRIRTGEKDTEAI
T3 sequence (Q55120 1-154 partner): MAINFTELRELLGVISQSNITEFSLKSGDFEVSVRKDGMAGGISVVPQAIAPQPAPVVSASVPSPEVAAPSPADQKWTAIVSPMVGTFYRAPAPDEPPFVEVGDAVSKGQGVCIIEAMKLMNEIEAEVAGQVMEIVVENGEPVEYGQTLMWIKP
T1 sequence (Q55120 entry or part of it, stated change not applied): as the sequence (Q55120 1-154 partner) above
T1 sequence (Q55247 whole entry S49C): as the sequence (Q55247 whole entry) above, with S49C counted along it
T2 sequence (Q55247 whole entry S49D): as the sequence (Q55247 whole entry) above, with S49D counted along it
T2 sequence (Q55120 entry or part of it, stated change not applied, further chain): as the sequence (Q55120 1-154 partner) above

Structure (SMILES): Nc1ncnc2c1ncn2[C@@H]1O[C@H](COP(=O)(O)OP(=O)(O)OP(=O)(O)O)[C@@H](O)[C@H]1O [ATP]
- pEC50 [1]: 3.84
- pEC50 [2]: 3.64
- pEC50 [3]: 4.17

Structure (SMILES): O=C(O)CCC(=O)C(=O)O [2-OG]
- pIC50 [4]: 4.38
